Values of other authors in US10385093B2, “Estrogen receptor imaging agents” (Northeastern University, priority 2012, dated 2019).

Assays:
[1] = tested on: ER; conditions: binding to ER in target tissues
[2] = rats, by 60 minutes after injection
[3] = target: T1, steroid hormone binding globulin (SHBG) (Homo sapiens, UniProt P04278)
T1 construct: host or cells: circulating plasma
T1 sequence (P04278 30-402): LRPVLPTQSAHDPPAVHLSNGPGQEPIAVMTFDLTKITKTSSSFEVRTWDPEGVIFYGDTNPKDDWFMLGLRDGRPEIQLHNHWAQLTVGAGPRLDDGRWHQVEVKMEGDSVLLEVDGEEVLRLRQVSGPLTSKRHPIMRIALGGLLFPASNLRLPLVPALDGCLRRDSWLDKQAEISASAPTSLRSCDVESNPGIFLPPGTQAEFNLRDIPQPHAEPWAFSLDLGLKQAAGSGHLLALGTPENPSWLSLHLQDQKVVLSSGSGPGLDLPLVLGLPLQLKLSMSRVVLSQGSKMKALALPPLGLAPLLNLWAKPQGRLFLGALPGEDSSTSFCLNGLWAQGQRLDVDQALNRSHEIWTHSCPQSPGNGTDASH

[4] = plasma of patients
[5] = small animal studies

| SMILES | relative binding affinity (RBA) [1] [%] | circulating radioactivity due to [18F]-FES [2] | FES in circulating plasma complexed with SHBG [3] [%] | radioactivity in plasma that is parent FES [4] | selectivity uptake ratios compared with [^18F]-ES [5] |
| --- | --- | --- | --- | --- | --- |
| C[C@]12CC[C@@H]3c4ccc(O)cc4CC[C@H]3[C@@H]1C[C@@H](F)[C@@H]2O [FES, [^18F]-16α-fluoroestradiol] | 80 | less than 15% | ≤ 45 | less than 20% |  |
| CO[C@H]1C[C@]2(C)[C@@H](O)[C@H]([18F])C[C@H]2[C@@H]2CCc3c(ccc(O)c3F)[C@H]21 [4FMFES, 4-Fluoro-11β-methoxy-16α-[^18F]-flouroestradiol] |  |  |  |  | higher selectivity uptake ratios |
